Legend:
Format in all cases: cell-based, murine
B16F10 cells [1] = test: Cell viability / cytotoxicity, EZ-Cytox assay; settings: concentrations ≤ 20 µM, 48 and 72 h
Description: Before investigating their inhibitory effects on B16F10 cells, the viability of (Z)-BPT derivatives 1–3 was examined in B16F10 cells.
To determine the cell viability, six different concentrations (0, 1, 2, 5, 10, and 20 µM) of (Z)-BPT derivatives 1–3 were used, and the results were examined at two time points (48 and 72 h). […] Based on the cell viability results, the concentrations for cell-based assays related to the melanin production level and cellular tyrosinase activity were determined.
Cytotoxicity studies of (Z)-BPT derivatives 1–3 were performed on B16F10 melanoma cells using the previously established EZ-Cytox (EZ-3000, DoGenBio, Seoul, Republic of Korea) test, and cytotoxicity studies of (Z)-BPT derivatives 1–3 were conducted on B16F10 melanoma cells. Briefly, B16F10 cells were seeded in a 96-well plate at a density of 1 × 10^4 cells/well and cultivated at 37 °C for 24 h in a humid environment with 5% CO2. […] The cells were then incubated at 37 °C for 2 h after 10 µL of the EZ-Cytox solution had been added to each well. To determine the cell viability, the absorbance of each well was measured at 450 nm using a microplate reader (VersaMax^TM, Molecular Devices, Sunnyvale, CA, USA). Each assay was performed in triplicates.
Figure 6 Effects of (Z)-BPT derivatives 1–3 on cell viability in B16F10 cells. Cytotoxic effects were measured using an EZ-Cytox assay at six different concentrations (0, 1, 2, 5, 10, and 20 µM) of 1–3. (A) Derivative 1; (B) Derivative 2; (C) Derivative 3. *** p < 0.001 for non-treated cells vs. cells treated with 3.

B16F10 cells [2] = test: Melanin content (anti-melanogenesis) assay in IBMX/α-MSH-stimulated cells; settings: 72 h; for effect on cellular melanin content: B16F10, 20 µM, IBMX + α-MSH; for effect on cellular melanin content increased by stimulators: B16F10, 5, 10, 20 µM, IBMX 200 µM + α-MSH 1 µM
Description: Cells were exposed to four different concentrations (0, 5, 10, and 20 µM) of 1 and 2 prior to treatment with stimulators (3-isobutyl-1-methylxanthine (IBMX, 200 µM), and α-melanocyte stimulating hormone (α-MSH, 1 µM)). After 72 h of incubation, the effects of 1 and 2 on melanin production were determined. Cellular melanin levels were assessed by measuring melanin levels in cell lysates.
The melanin content assay standard procedure was used to investigate the anti-melanogenic effect of (Z)-BPT derivatives 1 and 2 with a few minor modifications. Briefly, B16F10 melanoma cells were seeded in each well of a 6-well plate at a density of 1 × 10^5 cells/well and allowed to adhere to the well bottom under conditions that were identical to those used for cell culture. […] For 72 h, B16F10 cells were incubated at 37 °C in a humid environment containing 5% CO2 after being treated with IBMX and α-MSH. To determine the intracellular melanin content, B16F10 cells stimulated with IBMX and α-MSH for 72 h were rinsed twice with PBS and incubated in 200 µL 1N-NaOH solution including 10% dimethyl sulfoxide (DMSO) at 60 °C. The cell lysates were transferred to a 96-well plate after an hour of incubation, and the absorbance of the melanin content was calculated using a VersaMax^TM microplate reader (Molecular Devices, Sunnyvale, CA, USA) to determine intracellular melanin levels. Each experiment was performed independently in triplicates.
Figure 7 Effects of (Z)-BPT derivatives 1 and 2 on cellular melanin levels in B16F10 cells. […] (A) Derivative 1 and (B) derivative 2.

[3] = molecular target: T1, B16F10 cellular tyrosinase (Mus musculus, UniProt P11344); test: Cellular anti-tyrosinase activity assay in IBMX/α-MSH-stimulated cells; settings: 72 h; for cellular tyrosinase inhibitory activity: IBMX + α-MSH; for effect on cellular tyrosinase activity enhanced by stimulators: B16F10, 5, 10, 20 µM, IBMX 200 µM + α-MSH 1 µM
T1 construct: the anti-tyrosinase effects of these derivatives were investigated using B16F10 cells; host or cells: B16F10 murine melanoma cells
T1 sequence (P11344 19-533): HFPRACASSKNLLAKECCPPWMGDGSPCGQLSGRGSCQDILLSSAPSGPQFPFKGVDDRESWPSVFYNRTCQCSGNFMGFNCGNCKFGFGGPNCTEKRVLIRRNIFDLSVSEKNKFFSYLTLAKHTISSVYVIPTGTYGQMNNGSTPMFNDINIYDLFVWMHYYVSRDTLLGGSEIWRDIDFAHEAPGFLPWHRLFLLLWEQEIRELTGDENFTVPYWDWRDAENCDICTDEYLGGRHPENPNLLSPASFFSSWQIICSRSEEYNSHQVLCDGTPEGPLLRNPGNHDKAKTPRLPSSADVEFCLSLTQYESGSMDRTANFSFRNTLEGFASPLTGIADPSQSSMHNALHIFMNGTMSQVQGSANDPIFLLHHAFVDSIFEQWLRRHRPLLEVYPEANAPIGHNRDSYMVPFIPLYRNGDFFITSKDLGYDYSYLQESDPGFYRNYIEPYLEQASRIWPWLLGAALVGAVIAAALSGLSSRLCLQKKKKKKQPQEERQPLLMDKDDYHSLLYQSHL
Description: To examine the origin of the anti-melanogenic effects of (Z)-BPT derivatives 1 and 2, the anti-tyrosinase effects of these derivatives were investigated using B16F10 cells. […] After 72 h of incubation, the effects of 1 and 2 on cellular tyrosinase activity were analyzed.
Briefly, B16F10 melanoma cells were seeded in a 6-well plate at a density of 1 × 10^5 cells/well and allowed to adhere to the bottom of each well under identical conditions to the cell culture. […] After incubation for 1 h, the tyrosinase activity of the cells was increased by treatment with 200 µM IBMX and 1 µM α-MSH. The cells were incubated for 72 h under identical conditions to cell culture before being rinsed twice with PBS, exposed to a 100 µL lysis buffer solution consisting of 90 µL phosphate buffer (50 mM) at pH 6.5, 5 µL PMSF (2 mM), and 5 µL Triton X-100 (20%), and then incubated for 30 min at −80 °C. The cell lysates were placed into microcentrifuge tubes after defrosting and they were centrifuged at 12,000 rpm at 4 °C for 30 min. The supernatants (80 µL) of the lysates were combined with 20 µL of 10 mM L-DOPA in a 96-well plate. Using a microplate reader used for the melanin content assay, the mixture’s absorbances were measured every 10 min for 1 h at 37 °C and 492 nm. Each experiment was performed independently in triplicates.
Figure 8 Anti-tyrosinase activities of (Z)-BPT derivatives 1 and 2 in B16F10 cells. […] (A) Derivative 1 and (B) derivative 2. Data are presented as the mean ± standard error of the mean. ^### p < 0.001; * p < 0.05, ** p < 0.01, and *** p < 0.001.

Structure (SMILES) | cytotoxicity (B16F10 cells [1]) | effect on cellular melanin content (B16F10 cells [2]) | effect on cellular melanin content increased by stimulators (B16F10 cells [2]) | cellular tyrosinase inhibitory activity ([3]; B16F10, 20 µM) | effect on cellular tyrosinase activity enhanced by stimulators [3] | cellular tyrosinase inhibitory activity ([3]; B16F10, 5 µM)
O=C1N=C(c2ccccc2)S/C1=C\c1ccc(O)cc1 [Compound 1, (Z)-5-(4-Hydroxybenzylidene)-2-phenylthiazol-4(5H)-one] | did not show any perceptible cytotoxicity | more effectively than kojic acid | significantly and dose-dependently diminished | stronger inhibitory activity than kojic acid | dose-dependently and significantly decreased | –
O=C1N=C(c2ccccc2)S/C1=C\c1ccc(O)cc1O [Compound 2, (Z)-5-(2,4-Dihydroxybenzylidene)-2-phenylthiazol-4(5H)-one] | did not show any perceptible cytotoxicity | below those of the non-treated control | significantly and dose-dependently diminished | reduced the cellular tyrosinase activity to the levels observed in the untreated control | dose-dependently and significantly decreased | comparable to that of 20 µM kojic acid
